From the supplement of paper PMC10331698 come the findings set out here.

Assay in all cases: level (log10 ratio to DMSO vehicle control); higher = higher biomarker level / cell amount than vehicle control
Compound in experiment [1]: C=CC(=O)OCC(F)(F)C(F)(F)C(F)(F)C(F)(F)C(F)(F)C(F)(F)C(F)(F)C(F)F [1H,1H,9H-Perfluorononyl acrylate]
The following applies: in DMSO. The protocol: (§1)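 BioMAP Diversity Plus panel of 12 human primary cell co-culture systems (3C, 4H, LPS, SAg, BT, BF4T, BE3C, CASM3C, HDF3CGF, KF3CT, MyoF, Mphg). Compounds were added 1 h before stimulation and left for 24 h (MyoF 48 h; BT 72 h for soluble read-outs or 6 d for IgG). Biomarkers were read by ELISA, cytotoxicity by SRB, PBMC viability and proliferation by Alamar Blue. Each well value was divided by the mean of 8 DMSO control wells on the same plate and log10 transformed; duplicate blinded samples were tested at 4 concentrations.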

Compound in experiment [2]: OCCC(F)(F)C(F)(F)C(F)(F)C(F)(F)C(F)(F)C(F)(F)C(F)(F)C(F)(F)F [8:2 Fluorotelomer alcohol]
The note with it: 6700 nM; in DMSO. The method, then: as §1

Compound in experiment [3]: O=C(CC(=O)C(F)(F)C(F)(F)C(F)(F)F)c1cccs1 [(Perfluorobutyryl)-2-thenoylmethane]
The following applies: in DMSO. The method, then:
as §1

Compound in the next experiment: O=C(O)C(F)(F)C(F)(F)C(=O)O [Tetrafluorosuccinic acid]
The following applies: in DMSO. The protocol:
as §1

Compound in experiment [4]: OCCCC(F)(F)C(F)(F)C(F)(F)C(F)(F)C(F)(F)C(F)(F)C(F)(F)C(F)(F)F [3-(Perfluorooctyl)propanol]
The following applies: 6700 nM; in DMSO. The method, then:
as §1

Compound in experiment [5]: FC(F)(I)C(F)(F)C(F)(F)C(F)(F)C(F)(F)C(F)(F)I [1,6-Diiodoperfluorohexane]
The following applies: 6700 nM; in DMSO. The protocol: as §1

Compound in a further experiment: O=C(O)C(F)(F)C(F)(F)C(F)(F)C(F)(F)C(F)(F)C(F)(F)C(F)(F)F [Perfluorooctanoic acid]
The note with it: in DMSO. The protocol: as §1

Compound in experiment [6]: C=CC(=O)OCC(F)(F)C(F)(F)C(F)(F)C(F)(F)COC(=O)C=C [1H,1H,6H,6H-Perfluorohexane-1,6-diol diacrylate]
The following applies: 6700 nM; in DMSO. The method, then:
as §1

Compound in experiment [7]: O=C(O)C(F)(F)C(F)(F)C(F)(F)C(F)(F)C(F)(F)C(F)(F)C(F)(F)F [Ammonium perfluorooctanoate]
The following applies: in DMSO. The protocol: as §1

± gives the standard deviation of the averaged measurements.

With BF4T:CCL2/MCP-1, the “level (log10)” value in experiment [1] (6700 nM) is -0.015 ± 0.047; in experiment [1] (20000 nM), -0.0035 ± 0.0035; in experiment [1] (60000 nM), 0.0155 ± 0.026; in [2], -0.0135 ± 0.0035; in [3] (6700 nM), -0.097 ± 0.018; in experiment [3] (20000 nM), -0.306 ± 0.093. In addition, the “level (log10)” value was -0.007 ± 0.0028 in the experiment with Tetrafluorosuccinic acid (6700 nM); -0.0135 ± 0.0064 in the experiment with Tetrafluorosuccinic acid (20000 nM); -0.0215 ± 0.016 with Tetrafluorosuccinic acid (60000 nM); -0.0265 ± 0.0092 in experiment [4]; -0.172 in [5]; 0.0265 ± 0.018 in the experiment with Perfluorooctanoic acid (6700 nM). Also, the “level (log10)” value was 0.015 ± 0.013 in the experiment with Perfluorooctanoic acid (20000 nM); -0.0835 ± 0.039 with Perfluorooctanoic acid (60000 nM); -0.055 ± 0.02 in [6]; -0.0015 ± 0.013 in [7] (6700 nM); 0.0005 ± 0.036 in experiment [7] (20000 nM); -0.016 ± 0.069 in experiment [7] (60000 nM).
Take BT:sTNF-alpha: the “level (log10)” value in experiment [1] (6700 nM) was -0.111 ± 0.039; in experiment [1] (20000 nM), -0.281 ± 0.065; in experiment [1] (60000 nM) it was -0.827 ± 0.71; in experiment [2], 0.093 ± 0.034; in experiment [3] (6700 nM), -0.0385 ± 0.063; in [3] (20000 nM) it was -0.354 ± 0.13. In addition, the “level (log10)” value in the experiment with Tetrafluorosuccinic acid (6700 nM) was -0.0875 ± 0.14; with Tetrafluorosuccinic acid (20000 nM), -0.076 ± 0.13; with Tetrafluorosuccinic acid (60000 nM), -0.0795 ± 0.054; in experiment [4], -0.0805 ± 0.029; in experiment [5], -0.145; in the experiment with Perfluorooctanoic acid (6700 nM) it was 0.0755 ± 0.044. The “level (log10)” value with Perfluorooctanoic acid (20000 nM) is 0.097 ± 0.047; with Perfluorooctanoic acid (60000 nM), 0.166 ± 0.11; in experiment [6] it was -0.698 ± 0.042; in [7] (6700 nM) it was -0.033 ± 0.038; in experiment [7] (20000 nM), -0.0095 ± 0.12; in [7] (60000 nM), 0.001 ± 0.13.
For the test system BE3C:CXCL11/I-TAC, the “level (log10)” value is 0.0045 ± 0.00071 in experiment [1] (6700 nM); 0.0085 ± 0.013 in experiment [1] (20000 nM); -0.005 ± 0.0085 in experiment [1] (60000 nM); -0.012 ± 0.0014 in experiment [2]; -0.01 in [3] (6700 nM); -0.28 ± 0.011 in experiment [3] (20000 nM). Further, the “level (log10)” value was 0.002 ± 0.0042 in the experiment with Tetrafluorosuccinic acid (6700 nM); -0.0025 ± 0.0092 with Tetrafluorosuccinic acid (20000 nM); -0.002 ± 0.0014 in the experiment with Tetrafluorosuccinic acid (60000 nM); -0.003 ± 0.011 in [4]; 0.024 in experiment [5]; -0.0225 ± 0.032 with Perfluorooctanoic acid (6700 nM). Besides, the “level (log10)” value with Perfluorooctanoic acid (20000 nM) is -0.0225 ± 0.029; in the experiment with Perfluorooctanoic acid (60000 nM) it was -0.0095 ± 0.016; in experiment [6], -0.0115 ± 0.0021; in experiment [7] (6700 nM) it was 0.0095 ± 0.018; in experiment [7] (20000 nM), 0.0125 ± 0.019; in experiment [7] (60000 nM), -0.0295 ± 0.0035.
In the case of 4H:CD62P/P-selectin, the “level (log10)” value in experiment [1] (6700 nM) was -0.0135 ± 0.037; in [1] (20000 nM), -0.045 ± 0.011; in experiment [1] (60000 nM), -0.109; in experiment [2], -0.0615 ± 0.0064; in experiment [3] (6700 nM), -0.0205 ± 0.037; in experiment [3] (20000 nM), -0.41 ± 0.032. In addition, the “level (log10)” value with Tetrafluorosuccinic acid (6700 nM) is 0.001 ± 0.017; with Tetrafluorosuccinic acid (20000 nM), -0.011 ± 0.0042; in the experiment with Tetrafluorosuccinic acid (60000 nM) it was -0.0005 ± 0.015; in experiment [4] it was -0.0465 ± 0.022; in experiment [5], -0.001; in the experiment with Perfluorooctanoic acid (6700 nM) it was -0.005 ± 0.013. Moreover, the “level (log10)” value with Perfluorooctanoic acid (20000 nM) is 0.001 ± 0.0014; in the experiment with Perfluorooctanoic acid (60000 nM) it was 0.05 ± 0.02; in experiment [6], -0.104 ± 0.026; in experiment [7] (6700 nM) it was 0.0195 ± 0.012; in [7] (20000 nM), 0.043 ± 0.088; in [7] (60000 nM), 0.0515 ± 0.036.
For the test system 3C:Proliferation, the “level (log10)” value in experiment [1] (6700 nM) was -0.092 ± 0.031; in experiment [1] (20000 nM), -0.186 ± 0.021; in experiment [1] (60000 nM), -0.415 ± 0.013; in experiment [2] it was -0.0465 ± 0.005; in experiment [3] (6700 nM) it was -0.276 ± 0.04; in experiment [3] (20000 nM), -0.891 ± 0.063. Besides, the “level (log10)” value in the experiment with Tetrafluorosuccinic acid (6700 nM) is -0.0155 ± 0.028; with Tetrafluorosuccinic acid (20000 nM) it was -0.01 ± 0.0014; with Tetrafluorosuccinic acid (60000 nM), -0.0265 ± 0.021; in [4], -0.385 ± 0.027; in experiment [5] it was -0.102; with Perfluorooctanoic acid (6700 nM), -0.0155 ± 0.015. The “level (log10)” value was -0.003 ± 0.0099 with Perfluorooctanoic acid (20000 nM); -0.08 ± 0.02 in the experiment with Perfluorooctanoic acid (60000 nM); -0.307 ± 0.084 in [6]; -0.001 ± 0.034 in experiment [7] (6700 nM); 0.015 ± 0.0042 in experiment [7] (20000 nM); -0.0635 ± 0.08 in experiment [7] (60000 nM).
As to BF4T:CD90, the “level (log10)” value is -0.0085 ± 0.016 in experiment [1] (6700 nM); 0.005 ± 0.0071 in experiment [1] (20000 nM); -0.022 ± 0.0071 in [1] (60000 nM); -0.022 ± 0.0099 in experiment [2]; -0.014 ± 0.0085 in experiment [3] (6700 nM); -0.062 ± 0.027 in experiment [3] (20000 nM). Further, the “level (log10)” value was -0.0115 ± 0.012 with Tetrafluorosuccinic acid (6700 nM); -0.015 ± 0.024 with Tetrafluorosuccinic acid (20000 nM); -0.017 ± 0.0042 in the experiment with Tetrafluorosuccinic acid (60000 nM); -0.0195 ± 0.018 in experiment [4]; -0.059 in [5]; -0.0095 ± 0.022 with Perfluorooctanoic acid (6700 nM). The “level (log10)” value with Perfluorooctanoic acid (20000 nM) was -0.006 ± 0.0028; with Perfluorooctanoic acid (60000 nM), -0.0105 ± 0.019; in [6], -0.0265 ± 0.0021; in [7] (6700 nM), -0.007 ± 0.0028; in experiment [7] (20000 nM), -0.015 ± 0.0028; in experiment [7] (60000 nM) it was -0.001 ± 0.0028.
With BT:B cell Proliferation, the “level (log10)” value in experiment [1] (6700 nM) was -0.034 ± 0.0042; in experiment [1] (20000 nM), -0.0415 ± 0.0035; in [1] (60000 nM), -0.253 ± 0.15; in [2] it was 0.0245 ± 0.0064; in experiment [3] (6700 nM) it was -0.0105 ± 0.025; in [3] (20000 nM) it was -0.122 ± 0.036. In addition, the “level (log10)” value with Tetrafluorosuccinic acid (6700 nM) is -0.0055 ± 0.035; with Tetrafluorosuccinic acid (20000 nM) it was 0.0075 ± 0.019; with Tetrafluorosuccinic acid (60000 nM), 0.0285 ± 0.00071; in experiment [4], -0.0025 ± 0.0064; in experiment [5], -0.019; with Perfluorooctanoic acid (6700 nM), 0.0195 ± 0.018. Besides, the “level (log10)” value was 0.027 ± 0.021 with Perfluorooctanoic acid (20000 nM); 0.097 ± 0.0099 in the experiment with Perfluorooctanoic acid (60000 nM); -0.188 ± 0.0057 in experiment [6]; 0.0065 ± 0.047 in experiment [7] (6700 nM); 0.0165 ± 0.012 in [7] (20000 nM); 0.0515 ± 0.026 in experiment [7] (60000 nM).
